Measured values: patent US20230159527A1, “COMPOUNDS AS BCL-2 INHIBITORS” (Fochon Pharmaceuticals, Ltd., priority 2020, published 2023)
Read-outs that look alike come from different tables or passages of the source.

Experiments:
RS4;11-BCL-2 G101V cells = assay: Cell proliferation assay, engineered RS4;11 cells stably overexpressing BCL-2 G101V (MTS, 168 h); format: cell-based; conditions: read-out: RS4, 11 BCL2- G101V
Procedure: MTS testing kit was purchased from Promega (Madison, Wis., USA). The RPMI-1640, Fetal bovine serum and Penicillin-Streptomycin were purchased from BI (Biological Industries, Beit Haemek, Israel). Puromycin was purchased from Beyotime (shanghai, China). Dimethyl sulfoxide (DMSO) was purchased from Sigma (St. Louis, Mo., USA). RS4;1l-BCL-2 G101V and RS4;11-BCL-2 F104L cells were cultured in RPM11640 supplemented with 1 ug/mL puromycin, 100 U/mL Penicillin-Streptomycin and 10% FBS.
To investigate whether a compound is able to inhibit the activity of BCL-2 mutation in cells, a mechanism-based assay using engineered cell lines stably overexpressing BCL-2 mutation ([…] and […]) was developed. In this assay, the inhibition of BCL-2 mutation was reflected by the inhibition of cell proliferation of RS4;11-BCL-2 G101V and RS4;11-BCL-2 F104L cells. Cells were plated into 96-well plates at optimized cell density (RS4;11-BCL-2 G101V: 5000 cells/well; RS4;11-BCL-2 F104L: 5000 cells/well). Plates were incubated at 37° C., with 5% CO2 for 4 h. Compounds were serially diluted to the final-concentrations of 10000, 3333.3, 1111.1, 370.4, 123.5, 41.2, 13.7, 4.6 and 1.4 nM and added to the plates. Plates were incubated at 37° C., with 5% CO2 for 168 h. 20 μl MTS was added into each well and the plates were incubated at 37° C., with 5% CO2 exactly for 2 h. The absorbance was measured by a microplate reader at 490 nm. IC50 values were calculated using GraphPad Prism 5.0 software.

Toledo cells = assay: Cell proliferation assay, Toledo cells (MTS, 72 h); format: cell-based; conditions: Toledo cells, MTS, read-out: Toledo IC50
In short: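 Toledo cells (30000/well, RPMI-1640 with 10% FBS) were preincubated for 4 h. They were then exposed to nine compound concentrations from 10000 to 1.5 nM for 72 h at 37 °C, 5% CO2. MTS was added for 2 h and absorbance read at 490 nm to give IC50.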

SMILES	IC50 (RS4;11-BCL-2 G101V cells)	IC50 (Toledo cells)	IC50 (Toledo cells; Homo sapiens)	IC50 (RS4;11-BCL-2 G101V cells; Homo sapiens, RS4-11, 168 h)
CC(C)c1ccccc1[C@@H]1CCC[C@@H]1N1CC2(CCN(c3ccc(C(=O)NS(=O)(=O)c4cc5c(c([N+](=O)[O-])c4)N[C@@H]([C@H]4CC[C@](C)(O)CC4)CO5)c(Oc4cnc5[nH]cc(F)c5c4)c3)CC2)C1 (single isomer, unassigned) [Example D-28a, 2-((3-fluoro-1H-pyrrolo[2,3-b]pyridin-5-yl)oxy)-N-(((S)-3-((1r,4S)-4-hydroxy-4-methylcyclohexyl)-5-nitro-3,4-dihydro-2H-benzo[b] [1,4]oxazin-7-yl)sulfonyl)-4-(2-((1S,2S or 1R,2R)-2-(2-isopropylphenyl)cyclopentyl)-2,7-diazaspiro[3.5]nonan-7-yl)benzamide]	1 nM	1 nM		
CC(C)c1ccccc1[C@@H]1CCC[C@@H]1N1CC2(CCN(c3ccc(C(=O)NS(=O)(=O)c4ccc(NC[C@H]5CC[C@](C)(O)CC5)c([N+](=O)[O-])c4)c(Oc4cnc5[nH]cc(F)c5c4)c3)CC2)C1 (single isomer, unassigned) [Example D-34a, 2-((3-fluoro-1H-pyrrolo[2,3-b]pyridin-5-yl)oxy)-N-((4-((1r,4r)-4-hydroxy-4-methylcyclohexyl)methyl)amino)-3-nitrophenyl) sulfonyl)-4-(2-((1S,2S or 1R,2R)-2-(2-isopropylphenyl)cyclopentyl)-2,7-diazaspiro[3.5]nonan-7-yl)benzamide]	18 nM		1 nM	
COc1nc2[nH]ccc2cc1Oc1cc(N2CCC3(CC2)CN([C@H]2CCC[C@H]2c2ccccc2C(C)C)C3)ccc1C(=O)NS(=O)(=O)c1cc2c(c([N+](=O)[O-])c1)N[C@@H]([C@H]1CC[C@](C)(O)CC1)CO2 (single isomer, unassigned) [Example D-97, N-(((S)-3-((1r,4S)-4-hydroxy-4-methylcyclohexyl)-5-nitro-3,4-dihydro-2H-benzo[b][1,4]oxazin-7-yl)sulfonyl)-4-(2-((1S,2S or 1R,2R)-2-(2-isopropylphenyl)cyclopentyl)-2,7-diazaspiro[3.5]nonan-7-yl)-2-((6-methoxy-1H-pyrrolo [2,3-b]pyridin-5-yl)oxy)benzamide]			1 nM	12 nM
CC(C)c1ccccc1[C@@H]1CCCN1C1CC2(CCN(c3ccc(C(=O)NS(=O)(=O)c4cc5c(c([N+](=O)[O-])c4)N[C@@H]([C@H]4CC[C@](C)(O)CC4)CO5)c(Oc4cc5cc[nH]c5nc4OC4CN(C)C4)c3)CC2)C1 (single isomer, unassigned) [Example D-201, N-(((S)-3-((1r,4S)-4-hydroxy-4-methylcyclohexyl)-5-nitro-3,4-dihydro-2H-benzo[b][1,4]oxazin-7-yl)sulfonyl)-4-(2-((R or S)-2-(2-isopropylphenyl)pyrrolidin-1-yl)-7-azaspiro[3.5]nonan-7-yl)-2-((6-((1-methylazetidin-3-yl)oxy)-1H-pyrrolo[2,3-b]pyridin-5-yl)oxy)benzamide]			1 nM	1 nM
CC(C)c1ccccc1[C@@H]1CCCN1C1CC2(CCN(c3ccc(C(=O)NS(=O)(=O)c4cc5c(c([N+](=O)[O-])c4)N[C@@H]([C@H]4CC[C@](C)(O)CC4)CO5)c(Oc4cc5cc[nH]c5nc4O[C@H]4CCN(C)C4)c3)CC2)C1 (single isomer, unassigned) [Example D-226, N-(((S)-3-((1r,4S)-4-hydroxy-4-methylcyclohexyl)-5-nitro-3,4-dihydro-2H-benzo[b][1,4]oxazin-7-yl)sulfonyl)-4-(2-((R or S)-2-(2-isopropylphenyl)pyrrolidin-1-yl)-7-azaspiro[3.5]nonan-7-yl)-2-((6-(((5)-1-methylpyrrolidin-3-yl)oxy)-1H-pyrrolo[2,3-b]pyridin-5-yl)oxy)benzamide]			1 nM	13 nM
CC(C)c1ccccc1[C@@H]1CCCN1C1CC2(CCN(c3ccc(C(=O)NS(=O)(=O)c4cc5c(c([N+](=O)[O-])c4)N[C@@H]([C@H]4CC[C@](C)(O)CC4)CO5)c(Oc4cc5cc[nH]c5nc4OCCN4CCOCC4)c3)CC2)C1 (single isomer, unassigned) [Example D-63, N-(((S)-3-((1r,4S)-4-hydroxy-4-methylcyclohexyl)-5-nitro-3,4-dihydro-2H-benzo[b][1,4]oxazin-7-yl)sulfonyl)-4-(2-((R or S)-2-(2-isopropylphenyl)pyrrolidin-1-yl)-7-azaspiro[3.5]nonan-7-yl)-2-((6-(2-morpholinoethoxy)-1H-pyrrolo[2,3-b]pyridin-5-yl)oxy) benzamide]			1 nM	1 nM
CC(C)c1ccccc1[C@@H]1CCC[C@@H]1N1CC2(CCN(c3ccc(C(=O)NS(=O)(=O)c4cc5c(c([N+](=O)[O-])c4)N[C@@H]([C@H]4CC[C@](C)(O)CC4)CO5)c(Oc4cnc5[nH]cc(F)c5c4)c3)CC2)C1 (single isomer, unassigned) [Example D-28, 2-((3-fluoro-1H-pyrrolo[2,3-b]pyridin-5-yl)oxy)-N-(((S)-3-((1r,4S)-4-hydroxy-4-methylcyclohexyl)-5-nitro-3,4-dihydro-2H-benzo[b] [1,4]oxazin-7-yl)sulfonyl)-4-(2-((1S,2S or 1R,2R)-2-(2-isopropylphenyl)cyclopentyl)-2,7-diazaspiro[3.5]nonan-7-yl)benzamide]	13 nM		1 nM	
CCOc1nc2[nH]ccc2cc1Oc1cc(N2CCC3(CC2)CN([C@H]2CCC[C@H]2c2ccccc2C(C)C)C3)ccc1C(=O)NS(=O)(=O)c1cc2c(c([N+](=O)[O-])c1)N[C@@H]([C@H]1CC[C@](C)(O)CC1)CO2 (single isomer, unassigned) [Example D-98, 2-((6-ethoxy-1H-pyrrolo[2,3-b]pyridin-5-yl)oxy)-N-((S)-3-((1r,4S)-4-hydroxy-4-methylcyclohexyl)-5-nitro-3,4-dihydro-2H-benzo[b] [1,4]oxazin-7-yl)sulfonyl)-4-(2-((1S,2S or 1R,2R)-2-(2-isopropylphenyl)cyclopentyl)-2,7-diazaspiro[3.5]nonan-7-yl)benzamide]			1 nM	1 nM
CCOc1nc2[nH]ccc2cc1Oc1cc(N2CCC3(CC2)CN([C@H]2CCC[C@H]2c2ccccc2C(C)C)C3)ccc1C(=O)NS(=O)(=O)c1cnc(NC[C@H]2CC[C@](C)(O)CC2)c([N+](=O)[O-])c1 (single isomer, unassigned) [Example A-161, 2-((6-ethoxy-1H-pyrrolo[2,3-b]pyridin-5-yl)oxy)-N-((6-(((1r,4r)-4-hydroxy-4-methylcyclohexyl)methyl)amino)-5-nitropyridin-3-yl)sulfonyl)-4-(2-((1S,2S or 1R,2R)-2-(2-isopropylphenyl)cyclo-pentyl)-2,7-diazaspiro[3.5]nonan-7-yl) benzamide]			1 nM	2 nM
CCOc1nc2[nH]ccc2cc1Oc1cc(N2CCC3(CC2)CN([C@H]2CCC[C@H]2c2ccccc2C(C)C)C3)ccc1C(=O)NS(=O)(=O)c1ccc(NC[C@H]2CC[C@](C)(O)CC2)c([N+](=O)[O-])c1 (single isomer, unassigned) [Example D-92, 2-((6-ethoxy-1H-pyrrolo[2,3-b]pyridin-5-yl)oxy)-N-((4-((((1r,4r)-4-hydroxy-4-methylcyclohexyl)methyl)amino)-3-nitrophenyl)sulfonyl)-4-(2-((1S,2S or 1R,2R)-2-(2-isopropylphenyl)cyclopentyl)-2,7-diazaspiro[3.5]nonan-7-yl)benzamide]			1 nM	1 nM
CC(C)c1ccccc1[C@@H]1CCC[C@@H]1N1CC2(CCN(c3ccc(C(=O)NS(=O)(=O)c4cc5c(c([N+](=O)[O-])c4)N[C@@H]([C@H]4CC[C@](C)(O)CC4)CO5)c(Oc4cc5cc[nH]c5nc4Cl)c3)CC2)C1 (single isomer, unassigned) [Example D-101, 2-((6-chloro-1H-pyrrolo2,3-b]pyridin-5-yl)oxy)-N-(((S)-3-((1r,4S)-4-hydroxy-4-methylcyclohexyl)-5-nitro-3,4-dihydro-2H-benzo[b] [1,4]oxazin-7-yl)sulfonyl)-4-(2-((1S,2S or 1R,2R)-2-(2-isopropylphenyl)cyclopentyl)-2,7-diazaspiro[3.5] nonan-7-yl)benzamide]			1 nM	19 nM
CO[C@@H](C)COc1nc2[nH]ccc2cc1Oc1cc(N2CCC3(CC2)CC(N2CCC[C@H]2c2ccccc2C(C)C)C3)ccc1C(=O)NS(=O)(=O)c1cc2c(c([N+](=O)[O-])c1)N[C@@H]([C@H]1CC[C@](C)(O)CC1)CO2 (single isomer, unassigned) [Example D-202, N-(((S)-3-((1r,4S)-4-hydroxy-4-methylcyclohexyl)-5-nitro-3,4-dihydro-2H-benzo[b][1,4]oxazin-7-yl)sulfonyl)-4-(2-((R or S)-2-(2-isopropylphenyl)pyrrolidin-1-yl)-7-azaspiro[3.5]nonan-7-yl)-2-((6-((S)-2-methoxypropoxy)-1H-pyrrolo[2,3-b]pyridin-5-yl)oxy)benzamide]			1 nM	2 nM
